{"source": "paper PMC8583417", "about": "“Evaluation of the Antimicrobial Efficacy of N-Acetyl-L-Cysteine, Rhamnolipids, and Usnic Acid—Novel Approaches to Fight Food-Borne Pathogens” (International Journal of Molecular Sciences, 2021)", "key": {"[1]": {"test_system": "S. aureus 1241", "test": "MIC for biofilm metabolic activity (MTT reduction assay)", "format": "cell-based, Staphylococcus aureus", "details": "≥80% inhibition, 24 h", "method": "(§1) Ten concentrations of NAC, RLs, and UA were tested to determine the minimum inhibitory concentration for planktonic growth, and subsequently, the six highest concentrations were applied on preformed biofilms to evaluate the biofilm eradication ability of the compounds. MIC was defined as the lowest substance concentration able to inhibit at least 80% of microbial growth (MICPC80 for planktonic cells, MICBC80 for further growth of biofilm cells), inhibit 80% of metabolic activity (MICBM80 for biofilm metabolic activity, MICMPB80 for metabolic activity of preformed biofilm), prevent biofilm formation by at least 80% (MICBF80 for biofilm formation), or reduce a preformed biofilm by at least 80% (MICBR80 for biofilm reduction). The results of MICs are summarized in Table 1 (planktonic cells) and Table 2 (biofilm-associated cells).\n(§2) The determination of MICs was performed according to Chlumsky et al.. Briefly, 96-well flat-bottomed microtiter plates were inoculated with 75 µL (for biofilm formation) or 100 µL (for preformed biofilm) of bacterial suspension (A625nm 0.08 to 0.1) in technical triplicates and were then carefully mixed with the dilution series of the test substances (24 h cultivation at 25 °C for S. Infantis, 37 °C for other strains) or were directly cultivated to preform biofilms (18 h). For a positive control of bacterial growth, the inoculum was mixed with a pure sterile medium. […] To evaluate planktonic cells growth (MICPC80) and further growth of biofilm cells (MICBC80), the optical density of the content of the microtiter plates was measured spectrophotometrically at 625 nm before and after 24 h (for biofilm formation) of cultivation or before and after additional 20 h incubation with the tested compound (for preformed biofilm). […] To evaluate the inhibition of biofilm formation (MICBF80) and reduction in preformed biofilms (MICBR80), biomass was quantified using crystal violet staining, and its metabolic activity (MICBM80 and MICMPB80) was estimated by using the MTT (thiazyl tetrazolium bromide, Sigma-Aldrich, USA) reduction assay, both measured spectrophotometrically at 595 nm.\n(§3) All inhibitions were calculated using the formula of Chlumsky et al. below (Equation (1)):(1) A625(595)nm inhibition (%)=A625(595)nm (control) – A625(595)nm(natural substance)/A625(595)nm (control)× 100 where A625(595)nm (control) is the absorbance of bacterial suspension/biofilm itself, and A625(595)nm(natural substance) is the absorbance of the bacterial suspension/biofilm with the added natural substance (NAC, RLs, and UA).\n(§4) When the minimum inhibitory concentration could not be determined, the MIC was established as >the highest tested concentration for NAC, RLs, and UA."}, "[2]": {"test_system": "S. aureus 816", "test": "MIC for biofilm metabolic activity (MTT reduction assay)", "format": "cell-based, Staphylococcus aureus", "details": "≥80% inhibition, 24 h", "method": "as §1, §2, §3, §4"}, "[3]": {"test_system": "E. coli 693/17", "test": "MIC for further growth of biofilm cells, preformed biofilm (A625nm)", "format": "cell-based, Escherichia coli", "details": "for MICBC80: ≥80% inhibition, 18 h preformed biofilm, 20 h with substance", "method": "as §1\n(§5) The determination of MICs was performed according to Chlumsky et al.. Briefly, 96-well flat-bottomed microtiter plates were inoculated with 75 µL (for biofilm formation) or 100 µL (for preformed biofilm) of bacterial suspension (A625nm 0.08 to 0.1) in technical triplicates and were then carefully mixed with the dilution series of the test substances (24 h cultivation at 25 °C for S. Infantis, 37 °C for other strains) or were directly cultivated to preform biofilms (18 h). For a positive control of bacterial growth, the inoculum was mixed with a pure sterile medium. Furthermore, the sterile medium was included in the plate as a marker of potential microbial contamination. To evaluate planktonic cells growth (MICPC80) and further growth of biofilm cells (MICBC80), the optical density of the content of the microtiter plates was measured spectrophotometrically at 625 nm before and after 24 h (for biofilm formation) of cultivation or before and after additional 20 h incubation with the tested compound (for preformed biofilm). The difference of A625nm was considered as a measure of the ability of cells to grow in the presence of the tested substances. To evaluate the inhibition of biofilm formation (MICBF80) and reduction in preformed biofilms (MICBR80), biomass was quantified using crystal violet staining, and its metabolic activity (MICBM80 and MICMPB80) was estimated by using the MTT (thiazyl tetrazolium bromide, Sigma-Aldrich, USA) reduction assay, both measured spectrophotometrically at 595 nm.\nas §3, §4"}, "[4]": {"test_system": "E. coli 683/17", "test": "MIC for further growth of biofilm cells, preformed biofilm (A625nm)", "format": "cell-based, Escherichia coli", "details": "for MICBC80: ≥80% inhibition, 18 h preformed biofilm, 20 h with substance", "method": "as §1, §5, §3, §4"}, "[5]": {"test_system": "HRTEC (primary human renal tubular epithelial cells)", "test": "Acute cytotoxicity, resazurin assay", "format": "cell-based", "details": "72 h", "description": "(§6) To test the acute cytotoxicity of the compounds, the following cell lines were used: primary human renal tubular epithelial cells (HRTEC; Evercyte, Vienna, Austria); human keratinocytes (HaCat; Thermo Fisher Scientific, Waltham, MA, USA); human dermal fibroblasts (HDF; Merck, Kenilworth, NJ, USA); human epithelial kidney cells (HEK 293; ATCC, Manassas, VI, USA); primary human coronary artery endothelial cells (HCAEC; ATCC, Manassas, VI, USA). The cell lines were maintained in a proper cultivation medium—HaCat, HDF, and Hek 293 in DMEM; HRTEC in VCB; HCAEC in ProxUp. The cytotoxicity experiment was realized according to Tran et al.. Briefly, the cells were counted by the Cellometer Auto T4 (Nexcelom Bioscience, Lawrence, MA, USA), and the cell suspension containing a cell density of 10^5 cells/mL was split into the 96-well plate, with 100 µL per well. The plates were then incubated for 24 h at 37 °C in a humidified atmosphere of 5% CO2. Then, the plates were washed three times with PBS, and the tested natural compounds were added using binary dilution in a proper medium. After 72 h of incubation, the cell viability was tested by resazurin assay. The fluorescence was measured by a SpectraMax i3× microplate reader (San Jose, CA, USA) at a wavelength of 560 nm excitation/590 nm emission.\n(§7) The cytotoxicity results are expressed as the average IC50 ± standard error of the mean (SEM). Values of IC50 were obtained by using the online tool Quest Graph IC50 Calculator (AAT Bioquest Inc., Sunnyvale, CA, USA). One-way analysis of variance (ANOVA) was used followed by Duncan’s post hoc test (p < 0.05) to show the differences between the groups. For ANOVA, the Statistica software (Tibco Software Inc., Palo Alto, CA, USA) was used in version 12."}, "[6]": {"test_system": "HEK 293 (human epithelial kidney cells)", "test": "Acute cytotoxicity, resazurin assay", "format": "cell-based", "description": "as §6, §7"}, "[7]": {"test_system": "HCAEC (primary human coronary artery endothelial cells)", "test": "Acute cytotoxicity, resazurin assay", "format": "cell-based", "details": "72 h", "description": "as §6, §7"}, "[8]": {"test_system": "HaCat (human keratinocytes)", "test": "Acute cytotoxicity, resazurin assay", "format": "cell-based", "details": "72 h", "description": "as §6, §7"}, "[9]": {"test_system": "HDF (human dermal fibroblasts)", "test": "Acute cytotoxicity, resazurin assay", "format": "cell-based", "details": "72 h", "description": "as §6, §7"}, "[10]": {"test_system": "S. aureus 1241", "test": "MIC for biofilm formation (crystal violet staining)", "format": "cell-based, Staphylococcus aureus", "details": "≥80% prevention, 24 h", "method": "as §1, §2, §3, §4"}, "[11]": {"test_system": "S. aureus 816", "test": "MIC for biofilm formation (crystal violet staining)", "format": "cell-based, Staphylococcus aureus", "details": "≥80% prevention, 24 h", "method": "as §1, §2, §3, §4"}, "[12]": {"test_system": "E. coli 693/17", "test": "MIC for biofilm metabolic activity (MTT reduction assay)", "format": "cell-based, Escherichia coli", "details": "for MICBM80: ≥80% inhibition, 24 h", "method": "as §1, §5, §3, §4"}, "[13]": {"test_system": "E. coli 683/17", "test": "MIC for biofilm metabolic activity (MTT reduction assay)", "format": "cell-based, Escherichia coli", "details": "for MICBM80: ≥80% inhibition, 24 h", "method": "as §1, §5, §3, §4"}}, "note": "Marks after values point to notes of the source that are not given here.", "data": [{"smiles": "CC(=O)N[C@@H](CS)C(=O)O", "note": "[NAC, N-Acetyl-L-cysteine]", "values": [{"measurement": "MICBM80", "setting": "[1]", "result": 6250, "unit": "µg/mL"}, {"measurement": "MICBM80", "setting": "[2]", "result": 3130, "unit": "µg/mL"}, {"measurement": "MICBC80", "setting": "[3]", "result": 3130, "unit": "µg/mL"}, {"measurement": "MICBC80", "setting": "[4]", "result": 6250, "unit": "µg/mL"}, {"measurement": "IC50", "setting": "[5]; Homo sapiens, Epithelial cell", "result": "1570 ± 70", "unit": "µg/mL"}, {"measurement": "IC50", "setting": "[6]; Homo sapiens, HEK293, 72 h", "result": "1940 ± 250", "unit": "µg/mL"}, {"measurement": "IC50", "setting": "[7]; Homo sapiens, Endothelial cell", "result": "1830 ± 90", "unit": "µg/mL"}, {"measurement": "IC50", "setting": "[8]; Homo sapiens, HaCaT", "result": "4020 ± 470", "unit": "µg/mL"}, {"measurement": "IC50", "setting": "[9]; Homo sapiens, Fibroblast", "result": "460 ± 20", "unit": "µg/mL"}, {"measurement": "MICBF80", "setting": "[10]", "result": "12,500 µg/mL"}, {"measurement": "MICBF80", "setting": "[11]", "result": 3130, "unit": "µg/mL"}, {"measurement": "MICBM80", "setting": "[12]", "result": 6250, "unit": "µg/mL"}, {"measurement": "MICBM80", "setting": "[13]", "result": 6250, "unit": "µg/mL"}]}, {"smiles": "CC(=O)c1c(O)c(C)c(O)c2c1OC1=CC(=O)C(C(C)=O)C(=O)C12C", "note": "(single isomer, unassigned; (+)) [UA, (+)-usnic acid]", "values": [{"measurement": "MICBM80", "setting": "[1]", "result": 0.49, "unit": "µg/mL"}, {"measurement": "MICBM80", "setting": "[2]", "result": 0.24, "unit": "µg/mL"}, {"measurement": "maximal achieved inhibition (MICBC80 not reached)", "setting": "[3]; within tested concentrations", "result": 61, "unit": "%"}, {"measurement": "MICBC80", "setting": "[3]", "result": "> 31.3", "unit": "µg/mL"}, {"measurement": "maximal achieved inhibition (MICBC80 not reached)", "setting": "[4]; within tested concentrations", "result": 44, "unit": "%"}, {"measurement": "MICBC80", "setting": "[4]", "result": "> 31.3", "unit": "µg/mL"}, {"measurement": "IC50 (µg/mL)", "setting": "[5]; HRTEC, cytotoxicity, resazurin, average of 3 repetitions with SEM", "result": "3.06 ± 0.17 ^g µg/mL"}, {"measurement": "IC50 (µg/mL)", "setting": "[6]; HEK 293, cytotoxicity, 72 h, resazurin, average of 3 repetitions with SEM", "result": "2.75 ± 0.22 ^g µg/mL"}, {"measurement": "IC50 (µg/mL)", "setting": "[7]; HCAEC, cytotoxicity, resazurin, average of 3 repetitions with SEM", "result": "0.03 ± 0.01 ^i µg/mL"}, {"measurement": "IC50 (µg/mL)", "setting": "[8]; HaCat, cytotoxicity, resazurin, average of 3 repetitions with SEM", "result": "0.59 ± 0.14 ^h µg/mL"}, {"measurement": "IC50 (µg/mL)", "setting": "[9]; HDF, cytotoxicity, resazurin, average of 3 repetitions with SEM", "result": "4.35 ± 0.41 ^f µg/mL"}, {"measurement": "MICBF80", "setting": "[10]", "result": 0.24, "unit": "µg/mL"}, {"measurement": "MICBF80", "setting": "[11]", "result": 0.24, "unit": "µg/mL"}, {"measurement": "maximal achieved inhibition (MICBM80 not reached)", "setting": "[12]; within tested concentrations", "result": 16, "unit": "%"}, {"measurement": "MICBM80", "setting": "[12]", "result": "> 31.3", "unit": "µg/mL"}, {"measurement": "maximal achieved inhibition (MICBM80 not reached)", "setting": "[13]; within tested concentrations", "result": 27, "unit": "%"}, {"measurement": "MICBM80", "setting": "[13]", "result": "> 31.3", "unit": "µg/mL"}]}]}
